The test relates to sugar cane seedlings. The test is described as follows: Growth of sugar cane seedlings treated in the greenhouse, then transplanted to the field. In kind it is in vivo. An excerpt:
On an area of 0.1 hectares where sugar cane plants were growing with a distance between the rows of approximately 1.5 m, the top part of the 8 months old sugar cane plants was removed by chopping off with a machete in a height of approximately 2-2.5 m. The removed top part was discarded. After 30 days, on the below, remaining stalks, shoots (“1st generation”) had developed from the buds. The top parts (approximately 30 cm) of these shoots were removed by cutting. New shoots (“2nd generation”) developed from the cut shoots of the 1st generation. 30 days after cutting the top part of the 1st generation shoots, the 2nd generation shoots were removed by cutting them off closely to the nodes. On average, every node had produced three 2nd generation shoots. The removed 2nd generation shoots were each placed in pots filled with humid coconut fibers. The pots were placed in a greenhouse, and seedlings were grown from the planted shoots at 25-35° C. and 70-80% humidity. While in the greenhouse, the shoots/seedlings were watered sufficiently. One part of the seedlings was treated once with pyraclostrobin (in form of the commercial product Comet®; EC; 250 g/l) by immersing the entire tray containing the planted shoots for 10 min into a solution containing 4 ml of Comet® concentrate per l; i.e. 1 g pyraclostrobin per l. Another part of the seedlings remained untreated (control). 30 to 45 days after having been placed in the greenhouse, the surviving seedlings were transferred to an acclimatization area and kept for 15 days. Then they were counted and transplanted to a field. In sum 96,000 seedlings had been obtained. This number was sufficient for planting an area of 6.4 hectares with the same distance between the rows and the plants in the rows as in the originating field. […] 20 days after transplanting, the plant height of the treated and untreated plants was determined.

Molecule `COC(=O)N(OC)c1ccccc1COc1ccn(-c2ccc(Cl)cc2)n1` [pyraclostrobin] had a Plant height (1 g a.i./l, planted shoots immersed once for 10 min, height determined 20 days after transplanting to the field) of 38.3 cm. Moreover, the “colour and vigour of the seedlings / young plants” value (treated once while in the greenhouse, 1 g pyraclostrobin per l, compared with untreated seedlings) was “more intense, greener color and were more vigorous”. In addition, under “versus untreated control, 1 g pyraclostrobin per l, 20 days after transplanting”, the “increase in plant height” value was “more than 30%”.

Values taken from patent US9271448B2, “Method for cultivating sugar cane” (BASF SE, priority 2010, dated 2016).
